Experimental data: the NIST ThermoML archive (doi:10.1007/s10765-009-0648-5)

Test: wn = mass fraction of the nth substance listed
Details: 101 kPa, Liquid

CCC[n+]1ccn(C)c1.[Br-] [1-methyl-3-propylimidazolium bromide] + CN(C)C=O
Details | mass density, 288.15 K [kg/m3] | mass density, 293.15 K [kg/m3] | mass density, 298.15 K [kg/m3] | mass density, 303.15 K [kg/m3] | mass density, 308.15 K [kg/m3] | speed of sound, 288.15 K [m/s] | speed of sound, 293.15 K [m/s] | speed of sound, 298.15 K [m/s] | speed of sound, 303.15 K [m/s] | speed of sound, 308.15 K [m/s]
w1 = 0.006 | 955.471 | 950.721 | 945.962 | 941.197 | 936.424 | 1498.4 | 1479.2 | 1459.8 | 1440.5 | 1421.2
w1 = 0.0073 | 955.896 | 951.148 | 946.392 | 941.628 | 936.859 | 1498.7 | 1479.5 | 1460.1 | 1440.8 | 1421.5
w1 = 0.0101 | 956.834 | 952.089 | 947.339 | 942.58 | 937.812 | 1499.5 | 1480.2 | 1460.8 | 1441.4 | 1422.2
w1 = 0.012 | 957.413 | 952.669 | 947.92 | 943.162 | 938.398 | 1499.8 | 1480.3 | 1460.9 | 1441.6 | 1422.5
w1 = 0.0162 | 958.776 | 954.039 | 949.295 | 944.542 | 939.782 | 1500.8 | 1481.6 | 1462.2 | 1442.9 | 1423.7
w1 = 0.0204 | 960.154 | 955.416 | 950.675 | 945.932 | 941.175 | 1501.7 | 1482.2 | 1462.9 | 1443.6 | 1424.5
w1 = 0.0249 | 961.605 | 956.878 | 952.144 | 947.403 | 942.652 | 1502.7 | 1483.5 | 1464.2 | 1445 | 1425.8
w1 = 0.0303 | 963.324 | 958.602 | 953.872 | 949.136 | 944.395 | 1503.7 | 1484.4 | 1465.1 | 1445.9 | 1426.9
w1 = 0.0348 | 964.79 | 960.068 | 955.349 | 950.617 | 945.882 | 1504.8 | 1485.4 | 1466.2 | 1447 | 1428.1
w1 = 0.0405 | 966.57 | 961.858 | 957.139 | 952.415 | 947.684 | 1505.8 | 1486.5 | 1467.3 | 1448.2 | 1429.2
w1 = 0.0503 | 969.758 | 965.06 | 960.356 | 955.641 | 950.923 | 1507.8 | 1488.8 | 1469.7 | 1450.5 | 1431.6
w1 = 0.0586 | 972.333 | 967.639 | 962.94 | 958.234 | 953.523 | 1509.3 | 1490.1 | 1471 | 1452 | 1433.1
w1 = 1 | 1323.47 | 1319.84 | 1316.22 | 1312.6 | 1308.97 | 1699.3 | 1685 | 1672 | 1659.9 | 1648.3

CCC[n+]1ccn(C)c1.[Br-] [1-methyl-3-propylimidazolium bromide] + CC#N
Details | mass density, 288.15 K [kg/m3] | mass density, 293.15 K [kg/m3] | mass density, 298.15 K [kg/m3] | mass density, 303.15 K [kg/m3] | mass density, 308.15 K [kg/m3] | speed of sound, 288.15 K [m/s] | speed of sound, 293.15 K [m/s] | speed of sound, 298.15 K [m/s] | speed of sound, 303.15 K [m/s] | speed of sound, 308.15 K [m/s]
w1 = 0.0042 | 788.991 | 783.623 | 778.237 | 772.813 | 767.37 | 1320.2 | 1300.1 | 1280 | 1259.7 | 1239.6
w1 = 0.0061 | 789.726 | 784.364 | 778.979 | 773.562 | 768.119 | 1320.5 | 1300.3 | 1280.2 | 1260 | 1240.1
w1 = 0.0082 | 790.532 | 785.181 | 779.798 | 774.387 | 768.949 | 1321.1 | 1301.1 | 1281 | 1260.9 | 1240.8
w1 = 0.0107 | 791.47 | 786.115 | 780.735 | 775.331 | 769.896 | 1321.5 | 1301.3 | 1281.2 | 1261.1 | 1241.2
w1 = 0.0124 | 792.123 | 786.772 | 781.397 | 775.996 | 770.564 | 1322 | 1302 | 1281.9 | 1261.8 | 1241.7
w1 = 0.0161 | 793.533 | 788.186 | 782.814 | 777.417 | 771.996 | 1322.6 | 1302.5 | 1282.4 | 1262.3 | 1242.5
w1 = 0.0206 | 795.242 | 789.902 | 784.538 | 779.149 | 773.734 | 1323.5 | 1303.4 | 1283.4 | 1263.4 | 1243.5
w1 = 0.0251 | 796.939 | 791.606 | 786.248 | 780.864 | 775.46 | 1324.4 | 1304.3 | 1284.3 | 1264.4 | 1244.6
w1 = 0.0298 | 798.688 | 793.361 | 788.011 | 782.637 | 777.238 | 1325.3 | 1305.3 | 1285.3 | 1265.4 | 1245.6
w1 = 0.0347 | 800.578 | 795.262 | 789.919 | 784.553 | 779.16 | 1326.4 | 1306.5 | 1286.6 | 1266.7 | 1246.8
w1 = 0.0407 | 802.812 | 797.5 | 792.166 | 786.808 | 781.426 | 1327.3 | 1307.4 | 1287.5 | 1267.6 | 1248
w1 = 0.0493 | 806.071 | 800.772 | 795.452 | 790.107 | 784.738 | 1329.1 | 1309.3 | 1289.4 | 1269.6 | 1249.8
w1 = 0.0605 | 810.335 | 805.049 | 799.743 | 794.412 | 789.059 | 1331 | 1311.1 | 1291.3 | 1271.6 | 1252.1
w1 = 1 | 1323.47 | 1319.84 | 1316.22 | 1312.6 | 1308.97 | 1699.3 | 1685 | 1672 | 1659.9 | 1648.3
